This note sets out measurements from patent US5977102A, “Pyrimido [5, 4-d] pyrimidines, pharmaceuticals containing these compounds, their use and processes for their preparation” (Dr. Karl Thomae GmbH, priority 1996, dated 1999).

The term IC50 denotes the concentration that gives 50% inhibition.

What all share (format): cell-based
For one assay, the target named is T1, human EGF-R (Homo sapiens, UniProt P00533).
T1 construct: expressed in transfected cells; host or cells: F/L-HERc: murine IL-3-dependent FDC-P1 cells infected with recombinant retrovirus (vector LXSN, packaging line GP+E86) carrying human EGF-R cDNA
T1 sequence (P00533 25-1210): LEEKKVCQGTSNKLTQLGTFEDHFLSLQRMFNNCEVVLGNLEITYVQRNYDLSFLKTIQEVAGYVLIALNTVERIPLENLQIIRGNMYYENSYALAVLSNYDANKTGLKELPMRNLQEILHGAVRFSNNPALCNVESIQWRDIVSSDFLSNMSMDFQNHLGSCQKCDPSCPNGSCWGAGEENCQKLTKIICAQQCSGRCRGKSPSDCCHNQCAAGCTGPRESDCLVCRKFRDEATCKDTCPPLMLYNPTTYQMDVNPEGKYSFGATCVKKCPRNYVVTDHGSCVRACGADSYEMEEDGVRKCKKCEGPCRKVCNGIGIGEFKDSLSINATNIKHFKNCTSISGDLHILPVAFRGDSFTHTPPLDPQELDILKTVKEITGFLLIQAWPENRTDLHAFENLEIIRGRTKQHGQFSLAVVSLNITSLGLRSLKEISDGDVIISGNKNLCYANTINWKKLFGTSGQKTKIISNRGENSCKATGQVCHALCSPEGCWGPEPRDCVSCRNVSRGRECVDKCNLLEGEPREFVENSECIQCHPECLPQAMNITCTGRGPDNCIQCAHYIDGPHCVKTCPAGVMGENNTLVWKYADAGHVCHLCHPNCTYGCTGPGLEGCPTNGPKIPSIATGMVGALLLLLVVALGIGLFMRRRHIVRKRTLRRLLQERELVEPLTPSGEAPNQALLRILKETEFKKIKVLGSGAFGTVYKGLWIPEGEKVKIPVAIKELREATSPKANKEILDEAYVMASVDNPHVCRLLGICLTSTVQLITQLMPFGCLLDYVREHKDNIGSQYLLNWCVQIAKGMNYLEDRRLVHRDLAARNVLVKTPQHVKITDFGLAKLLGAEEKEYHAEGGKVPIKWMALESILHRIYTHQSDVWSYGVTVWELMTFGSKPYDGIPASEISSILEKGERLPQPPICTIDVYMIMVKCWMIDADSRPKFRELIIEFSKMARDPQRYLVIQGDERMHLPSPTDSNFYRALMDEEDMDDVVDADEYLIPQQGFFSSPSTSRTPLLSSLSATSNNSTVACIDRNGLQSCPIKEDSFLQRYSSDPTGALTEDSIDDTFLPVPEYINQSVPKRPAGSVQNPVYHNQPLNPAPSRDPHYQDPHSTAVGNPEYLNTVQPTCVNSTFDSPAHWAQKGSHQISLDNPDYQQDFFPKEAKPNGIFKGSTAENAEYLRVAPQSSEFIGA
The experiment in a line: Inhibition of EGF-dependent proliferation of F/L-HERc cells. Conditions: EGF (20 ng/ml), 48 hours. An excerpt: (§1) In this case, an interleukin-3 (IL-3)-dependent cell line of murine origin was used and was genetically modified in such a way that it expresses functional human EGF-R. Proliferation of these cells, which are called F/L-HERc, can therefore be stimulated either by murine IL-3 or by EGF (see von Ruden, T. et al. in EMBO J. 7, 2749-2756 (1988) and Pierce, J. H. et al. in Science 239, 628-631 (1988)).
(§2) The starting material for the F/L-HERc cells was the cell line FDC-P1,whose preparation has been described by Dexter, T. M. et al. in J. Exp. Med. 152, 1036-1047 (1980). However, it is also possible as an alternative to use other growth factor-dependent cells (see, for example, Pierce, J. H. et al. in Science 239, 628-631 (1988), Shibuya, H. et al. in Cell 70, 57-67 (1992) and Alexander, W. S. et al. in EMBO J. 10, 3683-3691 (1991)). Recombinant retroviruses as described in von Ruden, T. et al., EMBO J. 7, 2749-2756 (1988) were used for expression of the human EGF-R cDNA (see Ullrich, A. et al. in Nature 309, 418-425 (1984)) with the difference that the retroviral vector LXSN (see Miller, A. D. et al. in BioTechniques 7, 980-990 (1989)) was employed for expression of the EGF-R cDNA, and the line GP+E86 (see Markowitz, D. et al. in J. Virol. 62, 1120-1124 (1988)) was used as packaging cell.
(§3) The test was carried out as follows:
(§4) F/L-HERc cells were cultivated in RPMI/1640 medium (BioWhittaker), supplemented with 10% fetal calf serum (FCS, Boehringer Mannheim), 2 mM glutamine (BioWhittaker), standard antibiotics and 20 ng/ml human EGF (Promega), at 37° C. and 5% CO2. To investigate the inhibitory activity of the compounds according to the invention, 1.5×10^4 cells were cultivated in the above medium (200 μl) per well in triplicates in 96-well plates, stimulating proliferation of the cells either with EGF (20 ng/ml) or with murine IL-3. The source used for IL-3 was culture supernatants from the cell line X63/0 mIL-3 (see Karasuyama, H. et al. in Eur. J. Immunol. 18, 97-104 (1988)). The compounds according to the invention were dissolved in 100% dimethyl sulphoxide (DMSO) and added in various dilutions to the cultures, with the maximum DMSO concentration being 1%. The cultures were incubated at 37° C. for 48 hours.
(§5) To determine the inhibitory activity of the compounds according to the invention, the relative cell count was measured in O.D. units using the Cell Titre 96™ AQueous Non-Radioactive Cell Proliferation Assay (Promega). The relative cell count was calculated as a per cent of the control (F/L-HERc cells without inhibitor), and the concentration of active substance which inhibits the proliferation of the cells by 50% (IC50) was inferred.

The next assay deals with F/L-HERc cells. The experiment in a line: Inhibition of IL-3-dependent proliferation of F/L-HERc cells. Conditions: Mus musculus, murine IL-3, 48 hours.
Description: as §1, §2, §3, §4, §5

The test system of assay [1] is human tumour cell line KB. The experiment in a line: Inhibition of EGF/TGF-alpha-stimulated KB cell proliferation ([3H]-thymidine incorporation). Conditions: KB cells, TGF-alpha [10 ng/ml] or EGF [20 ng/ml], 60 hours, then [3H]-thymidine 16-18 h. Here is the method:
To do this, the cells were washed twice and 1500 cells per well were plated out in a 96-well plate in 200 μl of IMDM (BioWhittaker) without serum in the presence of 50 μM mercaptoethanol, standard antibiotics, TGF-alpha [10 ng/ml] or EGF [20 ng/ml] and of various concentrations of the substances according to the invention (triplicates, maximum DMSO concentration 1%, see proliferation test with F/L-HERc cells). After 60 hours, [^3 H]-thymidine (0.1 μCi in 10 μl) was added for about 16-18 h.

Regarding `c1cc(Nc2ncnc3cnc(N4CCOCC4)nc23)c2cccnc2c1` [1(1), 4-(5-quinolylamino)-6-morpholinopyrimido[5,4-d]pyrimidine], the IC50 against human EGF-R worked out at 2000 nM; with F/L-HERc cells, 10000 nM. As to `c1cnc2ccc(Nc3ncnc4cnc(N5CCOCC5)nc34)cc2c1` [1(2), 4-(6-quinolylamino)-6-morpholinopyrimido[5,4-d]pyrimidine], at human EGF-R, the IC50 was 1000 nM.

As for `c1cnc2c(Nc3ncnc4cnc(N5CCOCC5)nc34)cccc2c1` [1(3), 4-(8-quinolylamino)-6-morpholinopyrimido[5,4-d]pyrimidine], the concentration for half-maximal inhibition (IC50) on human EGF-R came out at 800 nM. The IC50 values of the last two molecules are within 1.5-fold of each other. Same read-out and setting: then `c1nc(Nc2ccc3[nH]ncc3c2)c2nc(N3CCOCC3)ncc2n1` [1(4), 4-(5-indazolylamino)-6-morpholinopyrimido[5,4-d]pyrimidine], with 125 nM; and `c1cc(Nc2ncnc3cnc(N4CCOCC4)nc23)c2nsnc2c1` [1(5), 4-[4-(2,1,3-benzothiadiazolyl)amino]-6-morpholinopyrimido[5,4-d]pyrimidine], with 1000 nM; and `c1cncc(Nc2ncnc3cnc(N4CCOCC4)nc23)c1` [1(9), 4-(3-pyridylamino)-6-morpholinopyrimido[5,4-d]pyrimidine], with 6000 nM.

With `c1cc(Nc2ncnc3cnc(N4CCOCC4)nc23)ccn1` [1(13), 4-(4-pyridylamino)-6-morpholinopyrimido[5,4-d]pyrimidine], the IC50 against human EGF-R stood at 10000 nM; in the assay on F/L-HERc cells, 9000 nM.

For `c1cc2cc(Nc3ncnc4cnc(N5CCOCC5)nc34)ccc2cn1` [1(14), 4-(6-isoquinolylamino)-6-morpholinopyrimido[5,4-d]-pyrimidine], the figures for the IC50 against human EGF-R and in the assay with F/L-HERc cells were 2300 nM and 2200 nM, respectively. Take `Clc1cccc(CNc2ncnc3cnc(N4CCOCC4)nc23)c1` [1(15), 4-(3-chlorobenzylamino)-6-morpholinopyrimido[5,4-d]-pyrimidine]: the IC50 at human EGF-R is 1 nM; in the assay with F/L-HERc cells it was greater than 10000 nM.

Consider `c1ccc2c(c1)CCC(Nc1ncnc3cnc(NC4CC4)nc13)C2` (stereo not shown) [1(16), 4-(1,2,3,4-tetrahydro-2-naphthylamino)-6-cyclopropylaminopyrimido[5,4-d]pyrimidine], for which the IC50 on human EGF-R was 200 nM. That is a sub-micromolar value. Take `O[C@H]1CC[C@H](Nc2ncc3ncnc(Nc4ccc5[nH]ccc5c4)c3n2)CC1` [2(1), 4-(5-indolylamino)-6-[trans-(4-hydroxycyclohexyl)amino]pyrimido[5,4-d]pyrimidine]: the IC50 against human EGF-R was 1 nM; in the assay on F/L-HERc cells, greater than 10000 nM. At human EGF-R, `Cc1cccc(Nc2ncnc3cnc(-n4ccnc4)nc23)c1` [2(2), 4-[(3-methylphenyl)amino]-6-(1-imidazolyl)pyrimido-[5,4-d]pyrimidine] showed an IC50 of 400 nM. As for `CN1CCC2(CC1)CN(c1ncc3ncnc(Nc4ccc(F)c(Cl)c4)c3n1)C2` [2(3), 4-[(3-chloro-4-fluorophenyl)amino]-6-(7-methyl-2,7-diazaspiro[3.5]-2-nonyl)pyrimido[5,4-d]pyrimidine], the IC50 on human EGF-R was 138 nM; in the assay on F/L-HERc cells, greater than 10000 nM. As to `O=C(CN1CCN(c2ncc3ncnc(Nc4ccc(F)c(Cl)c4)c3n2)CC1)N1CCCC1` [2(4), 4-[(3-chloro-4-fluorophenyl)amino]-6-[4-(1-pyrrolidinylcarbonylmethyl)-1-piperazinyl]pyrimido[5,4-d]pyrimidine], the IC50 is 200 nM against human EGF-R and greater than 10000 nM with F/L-HERc cells. For `O=C(CN1CCN(c2ncc3ncnc(Nc4ccc(F)c(Cl)c4)c3n2)CC1)N1CCOCC1` [2(5), 4-[(3-chloro-4-fluorophenyl)amino]-6-[4-(morpholinocarbonylmethyl)-1-piperazinyl]pyrimido[5,4-d]pyrimidine] the same measures were 40 nM and greater than 10000 nM. For `Fc1ccc(Nc2ncnc3cnc(NCc4ccccn4)nc23)cc1Cl` [2(7), 4-[(3-chloro-4-fluorophenyl)amino]-6-(2-picolylamino)pyrimido[5,4-d]pyrimidine] the same measures were 175 nM and greater than 1000 nM. For `O=C(N1CCC(Nc2ncc3ncnc(Nc4ccc(F)c(Cl)c4)c3n2)CC1)C(F)(F)F` [2(8), 4-[(3-chloro-4-fluorophenyl)amino]-6-[1-trifluoroacetyl-4-piperidinylamino]pyrimido[5,4-d]pyrimidine] the same measures were 15 nM and greater than 20000 nM.

Consider `Fc1ccc(Nc2ncnc3cnc(N4CCC(c5ccncc5)CC4)nc23)cc1Cl` [2(9), 4-[(3-chloro-4-fluorophenyl)amino]-6-[4-(4-pyridyl)-1-piperidinyl]pyrimido[5,4-d]pyrimidine], for which the IC50 against human EGF-R is 225 nM; in the assay on F/L-HERc cells it was greater than 20000 nM. For `Fc1ccc(Nc2ncnc3cnc(N4CCN(c5ccccn5)CC4)nc23)cc1Cl` [2(10), 4-[(3-chloro-4-fluorophenyl)amino]-6-[4-(2-pyridyl)-1-piperazinyl]pyrimido[5,4-d]pyrimidine] the same measures were 275 nM and greater than 20000 nM.

`NCc1cccc(CNc2ncc3ncnc(Nc4ccc(F)c(Cl)c4)c3n2)c1` [2(11), 4-[(3-chloro-4-fluorophenyl)amino]-6-[3-(aminomethyl)benzylamino]pyrimido[5,4-d]pyrimidine]: at human EGF-R, it took 190 nM to reach half-maximal inhibition (IC50). This counts as sub-micromolar. On the same count and under the same terms, then `NCc1ccc(CNc2ncc3ncnc(Nc4ccc(F)c(Cl)c4)c3n2)cc1` [2(12), 4-[(3-chloro-4-fluorophenyl)amino]-6-[4-(aminomethyl)benzylamino]pyrimido[5,4-d]pyrimidine], with 98 nM; and `O[C@H]1CC[C@H](Nc2ncc3ncnc(Nc4ccc5c(c4)Cc4ccccc4-5)c3n2)CC1` [2(15), 4-[2-fluorenylamino]-6-(trans-4-hydroxycyclohexylamino)pyrimido[5,4-d]pyrimidine], with greater than 10000 nM. Turning to `CN1[C@@H]2CC[C@H]1C[C@@H](Nc1ncc3ncnc(Nc4ccc(F)c(Cl)c4)c3n1)C2` [2(18), 4-[(3-chloro-4-fluorophenyl)amino]-6-(endo-tropinylamino)pyrimido[5,4-d]pyrimidine], the IC50 was 138 nM against human EGF-R and greater than 10000 nM in the assay with F/L-HERc cells. Consider `CN1[C@@H]2CC[C@H]1C[C@H](Nc1ncc3ncnc(Nc4ccc(F)c(Cl)c4)c3n1)C2` [2(19), 4-[(3-chloro-4-fluorophenyl)amino]-6-(exo-tropinylamino)pyrimido[5,4-d]pyrimidine], for which the IC50 on human EGF-R was 28 nM; in the assay on F/L-HERc cells, greater than 10000 nM. In the case of `c1nc(Nc2ccc3[nH]ccc3c2)c2nc(N3CCOCC3)ncc2n1` [Example 1, 4-(5-Indolylamino)-6-morpholinopyrimido[5,4-d]pyrimidine], the IC50 was 21 nM against human EGF-R and 10000 nM with F/L-HERc cells. With `Fc1ccc(Nc2ncnc3cnc(NN4CCOCC4)nc23)cc1Cl` [Example 2(6), 4-[(3-chloro-4-fluorophenyl)amino]-6-[(4-morpholinyl)amino]pyrimido[5,4-d]pyrimidine], the IC50 against human EGF-R was 3 nM; in the assay with F/L-HERc cells, greater than 10000 nM; in assay [1], 100 nM. In the case of `Fc1ccc(Nc2ncnc3cnc(NCc4ccncc4)nc23)cc1Cl` [Example 2, 4-[(3-Chloro-4-fluorophenyl)amino]-6-(4-picolylamino)pyrimido[5,4-d]pyrimidine], the IC50 was 50 nM against human EGF-R, greater than 1000 nM in the assay with F/L-HERc cells and 400 nM in assay [1].
